Test [1] concerns human subjects with dry skin and mild to moderate atopic dermatitis. The note with it: 200 mg/day GLA orally; measurements at weeks 0, 4, 8, 12 and 16; cited from earlier work.
The next test deals with skin of the cheek. Put plainly: Example 1: 28-day oral hyaluronic acid study, hydration, TEWL and wrinkle depth of the skin of the cheek. The class given is in vivo, human. The following applies: 200 mg HA orally once daily, 28 days. As to the method: A cachet containing 200 mg hyaluronic acid (HA) was administered orally, once daily, to 30 subjects for 28 days. The hyaluronic acid administered in this manner consisted of hyaluronic acid molecules having molecular weights in a range of from 50 to 2200 kDa. The hydration, TEWL and wrinkle depth of the skin of the cheek of each subject was measured on the first day of the 28-day study and on the last day of the 28-day study. A Courage+Khazaka Dual 580 Multi Probe Adapter System fitted with a Corneometer™ CM 825 probe (obtainable from Courage & Khazaka Electronic GmbH of Mathias-Brüggen-Straße 91, 50829 Köln, Germany) was used to measure the surface hydration of the subjects' skin. A Courage+Khazaka Dual 580 Multi Probe Adapter System fitted with a Tewameter™ 300 probe was used to measure the TEWL of the subjects' skin. A PRIMOS 3D™ optical skin measurement device was used to measure the depth and width of wrinkles in the subjects' skin. The average percentage change in each of the parameters measured from the first day of the 28-day study to the last day of the 28-day study was calculated.

The text below walks through data of patent US20250241840A1, “ORALLY ADMINISTRATED COSMETIC COMPOSITIONS TO TREAT SKIN DRYNESS” (IIAA Limited, priority 2022, published 2025).

Take `CCCCC/C=C\C/C=C\C/C=C\CCCCC(=O)O` [GLA, all-cis-6,9,12-octadecatrienoic acid]: the “Effect on TEWL” value in test [1] is reported as “reduce TEWL”.

Turning to hyaluronic acid, the “Skin surface hydration, average percentage change over the course of the 28-day study” value in the test on skin of the cheek (Corneometer CM 825) was “+10.6%”; in the test with skin of the cheek (Corneometer CM 825, listed as HA), “+10.6%”. Further, in the test with skin of the cheek (PRIMOS 3D), the “Wrinkle depth, average percentage change over the course of the 28-day study” value is on record as −18.8%. In addition, the “TEWL, average percentage change over the course of the 28-day study” value with skin of the cheek (Tewameter 300) is given as −3.9%.
